#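 Step 1: Grow cells in 96-well plates. Step 2: Expose to compound for 48 hours at 5 concentrations. Step 3: Interpolate endpoints linearly; if unreached, use highest concentration. GI50: concentration for 50% inhibition of growth. Definition used: TGI = concentration required for complete inhibition of growth.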
# Key:
# Assay in all cases: growth of human tumour cells (NCI), 48 h
# 786-0 renal = system: 786-0 renal
# A498 renal = system: A498 renal
# A549 NSCLC = system: A549 NSCLC
# ACHN renal = system: ACHN renal
# BT-549 breast = system: BT-549 breast
# CAKI-1 renal = system: CAKI-1 renal
# CCRF-CEM leukemia = system: CCRF-CEM leukemia
# COLO 205 colon = system: COLO 205 colon
# DU-145 prostate = system: DU-145 prostate
# EKVX NSCLC = system: EKVX NSCLC
# HCT-116 colon = system: HCT-116 colon
# HCT-15 colon = system: HCT-15 colon
# HL-60(TB) leukemia = system: HL-60(TB) leukemia
# HOP-62 NSCLC = system: HOP-62 NSCLC
# HOP-92 NSCLC = system: HOP-92 NSCLC
# HS 578T breast = system: HS 578T breast
# HT29 colon = system: HT29 colon
# IGROV1 ovarian = system: IGROV1 ovarian
# K-562 leukemia = system: K-562 leukemia
# KM12 colon = system: KM12 colon
# LOX IMVI melanoma = system: LOX IMVI melanoma
# M14 melanoma = system: M14 melanoma
# MALME-3M melanoma = system: MALME-3M melanoma
# MCF7 breast = system: MCF7 breast
# MDA-MB-231 breast = system: MDA-MB-231 breast
# MDA-MB-435 = system: MDA-MB-435
# MOLT-4 leukemia = system: MOLT-4 leukemia
# NCI-H226 lung = system: NCI-H226 lung
smiles,measurement,setting,value
O=C1c2ccccc2-c2ccccc2C1(Cl)Cl,GI50,786-0 renal,2110 nM
same,TGI,786-0 renal,4160 nM
same,GI50,A498 renal,1090 nM
same,TGI,A498 renal,2770 nM
same,GI50,A549 NSCLC,1490 nM
same,TGI,A549 NSCLC,3210 nM
same,GI50,ACHN renal,1720 nM
same,TGI,ACHN renal,3530 nM
same,GI50,BT-549 breast,1720 nM
same,TGI,BT-549 breast,3140 nM
same,GI50,CAKI-1 renal,1170 nM
same,TGI,CAKI-1 renal,2630 nM
same,GI50,CCRF-CEM leukemia,1650 nM
same,TGI,CCRF-CEM leukemia,7030 nM
same,GI50,COLO 205 colon,1810 nM
same,TGI,COLO 205 colon,3470 nM
same,GI50,DU-145 prostate,1470 nM
same,TGI,DU-145 prostate,2780 nM
same,GI50,EKVX NSCLC,1460 nM
same,TGI,EKVX NSCLC,2880 nM
same,GI50,HCT-116 colon,300 nM
same,TGI,HCT-116 colon,1090 nM
same,GI50,HCT-15 colon,1810 nM
same,TGI,HCT-15 colon,4250 nM
same,GI50,HL-60(TB) leukemia,2290 nM
same,TGI,HL-60(TB) leukemia,5930 nM
same,GI50,HOP-62 NSCLC,1130 nM
same,TGI,HOP-62 NSCLC,2640 nM
same,GI50,HOP-92 NSCLC,1760 nM
same,TGI,HOP-92 NSCLC,4070 nM
same,GI50,HS 578T breast,2500 nM
same,TGI,HS 578T breast,9410 nM
same,GI50,HT29 colon,2520 nM
same,TGI,HT29 colon,7570 nM
same,GI50,IGROV1 ovarian,1130 nM
same,TGI,IGROV1 ovarian,2540 nM
same,GI50,K-562 leukemia,430 nM
same,TGI,K-562 leukemia,5460 nM
same,GI50,KM12 colon,1730 nM
same,TGI,KM12 colon,3170 nM
same,GI50,LOX IMVI melanoma,314 nM
same,GI50,M14 melanoma,1260 nM
same,TGI,M14 melanoma,2650 nM
same,GI50,MALME-3M melanoma,980 nM
same,TGI,MALME-3M melanoma,2300 nM
same,GI50,MCF7 breast,1860 nM
same,TGI,MCF7 breast,4190 nM
same,GI50,MDA-MB-231 breast,1360 nM
same,TGI,MDA-MB-231 breast,3630 nM
same,GI50,MDA-MB-435,197 nM
same,TGI,MDA-MB-435,372 nM
same,GI50,MOLT-4 leukemia,2190 nM
same,TGI,MOLT-4 leukemia,7090 nM
same,GI50,NCI-H226 lung,1790 nM

# Source: PubChem BioAssay (NCI)
